Measurements reported in ChEMBL document CHEMBL3638614, “Diaza-spiro[5.5]undecanes” (2013).

Tests used:
[1] = molecular target: T1, Orexin/Hypocretin receptor type 1 (Homo sapiens, UniProt O43613); test: (§1) FLIPR Assay : FLIPR assay using orexin receptor.
T1 sequence (O43613 whole entry): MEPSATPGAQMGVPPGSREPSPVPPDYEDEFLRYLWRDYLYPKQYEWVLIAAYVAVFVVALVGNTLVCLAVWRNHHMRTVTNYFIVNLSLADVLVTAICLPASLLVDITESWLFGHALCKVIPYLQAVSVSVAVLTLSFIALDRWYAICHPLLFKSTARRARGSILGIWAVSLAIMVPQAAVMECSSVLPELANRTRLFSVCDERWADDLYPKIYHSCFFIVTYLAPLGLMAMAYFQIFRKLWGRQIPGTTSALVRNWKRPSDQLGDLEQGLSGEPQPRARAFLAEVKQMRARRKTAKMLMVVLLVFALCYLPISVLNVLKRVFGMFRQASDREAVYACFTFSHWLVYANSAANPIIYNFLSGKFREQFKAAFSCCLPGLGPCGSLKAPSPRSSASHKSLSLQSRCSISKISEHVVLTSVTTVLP

Orexin receptor type 2 [2] = molecular target: T2, Orexin receptor type 2 (Homo sapiens, UniProt O43614); test: as §1
T2 sequence (O43614 whole entry): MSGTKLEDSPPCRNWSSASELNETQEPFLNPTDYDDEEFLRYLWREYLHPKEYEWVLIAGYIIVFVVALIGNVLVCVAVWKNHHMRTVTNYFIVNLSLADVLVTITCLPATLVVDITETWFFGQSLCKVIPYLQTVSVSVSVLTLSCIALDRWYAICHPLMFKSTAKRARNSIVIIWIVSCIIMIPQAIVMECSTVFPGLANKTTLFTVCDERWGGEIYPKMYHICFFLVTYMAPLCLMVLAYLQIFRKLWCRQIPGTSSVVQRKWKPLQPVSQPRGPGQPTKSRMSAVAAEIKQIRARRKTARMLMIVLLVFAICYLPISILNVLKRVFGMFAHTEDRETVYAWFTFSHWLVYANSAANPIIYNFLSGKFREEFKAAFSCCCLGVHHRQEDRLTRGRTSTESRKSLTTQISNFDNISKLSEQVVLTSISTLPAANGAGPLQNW

[3] = molecular target: T1, Orexin/Hypocretin receptor type 1; test: (§2) Radioligand Binding Assay : Radioligand binding assay using orexin receptor.
Orexin receptor type 2 [4] = molecular target: T2, Orexin receptor type 2; test: as §2

| Ki [1] | Ki (Orexin receptor type 2 [2]) | Kd [3] | Kd (Orexin receptor type 2 [4]) | Structure (SMILES) |
| --- | --- | --- | --- | --- |
| 1.54 µM | 0.739 µM |  |  | O=C1N(Cc2cc(Cl)cc3c2OCOC3)CCCC12CCN(c1cnc3ccccc3n1)CC2 |
| 2.46 µM | 0.126 µM | > 10 µM | 0.755 µM | O=C1N(Cc2cccc3ccccc23)CCCC12CCN(c1nc3ccccc3[nH]1)CC2 |
|  |  | > 10 µM | > 10 µM | Cn1c(N2CCC3(CCCN(Cc4ccccc4)C3=O)CC2)nc2ccccc21 |
